Structures are written as SMILES.

For the experiment, the target named is SARS-CoV 3CL^pro (Severe acute respiratory syndrome coronavirus, UniProt P0C6X7). Nature of the experiment: biochemical.
Turning to `N#Cc1c(-c2cccc([N+](=O)[O-])c2)nc(SCCc2ccccc2)[nH]c1=O` [Compound 6j], the IC50 is above 50 µM. `Cc1ccc(-c2nc(SCCc3ccccc3)[nH]c(=O)c2C#N)cc1` [Compound 6h] registered an IC50 above 50 µM. Under `Cc1ccc(-c2nc(SCc3ccccc3)[nH]c(=O)c2C#N)cc1` [Compound 6g] stands above 50 µM; under `N#Cc1c(-c2cccc(Cl)c2)nc(SCc2ccccc2)[nH]c1=O` [Compound 6n], above 50 µM; under `COc1ccc(-c2nc(SCc3ccccc3)[nH]c(=O)c2C#N)cc1` [Compound 6d], above 50 µM. `Cc1ccc(-c2nc(SCc3ccc([N+](=O)[O-])cc3)[nH]c(=O)c2C#N)cc1` [Compound 6i] registered an IC50 above 50 µM.

As for `N#Cc1c(-c2ccccc2)nc(SCc2ccccc2)[nH]c1=O` [Compound 6a], the IC50 is above 50 µM. Take `N#Cc1c(-c2ccccc2)nc(SCCc2ccccc2)[nH]c1=O` [Compound 6b]: the IC50 is above 50 µM.

(Values after PMC7126861 (Bioorganic & Medicinal Chemistry Letters, 2010).)
